Reference: ChEMBL document CHEMBL6087404, “Naphthoindole-2-carboxamides as a lipophilic chemotype of hetarene-anthraquinones potent against P-gp resistant tumor cells” (Eur J Med Chem, 2025)
Calls of active or inactive are those of the source. No cut-off for these calls is given here.

Legend:
[1] = Selectivity index, ratio of IC50 for human hFB-hTERT6 cells to IC50 for human K562 cells; assay type: toxicity; conditions: hFB-hTERT6 cells and K562 cells, read-out: Ratio IC50
[2] = Antiproliferative activity against hFB-hTERT6 cells incubated for 72 hrs by MTT assay; assay type: toxicity, cell-based; conditions: human
K562 = assay: Antiproliferative activity against human K562 cells incubated for 72 hrs by MTT assay; assay type: functional, cell-based; conditions: K562, 72 h
A549 = assay: Antiproliferative activity against human A549 cells incubated for 72 hrs by MTT assay; assay type: functional, cell-based; conditions: A549, 72 h
[3] = Resistance index, ratio of IC50 for human K562/4 cells to IC50 for human K562 cells; assay type: functional
K562/4 = assay: Antiproliferative activity against human K562/4 cells incubated for 72 hrs by MTT assay; assay type: functional, cell-based; conditions: K562/4, 72 h
[4] = Drug uptake in P-gp+ human […] cells at 3 uM incubated for 10 mins by confocal microscopy; assay type: ADME, cell-based; conditions: k562/4, 10 min
[5] = Drug uptake in cytoplasmic membrane of human HCT-116 cells at 3 uM incubated for 1 hr by confocal microscopy; assay type: ADME, cell membranes, Cytoplasm membrane; conditions: hct-116, 1 h
[6] = target: T1, DNA topoisomerase 1 (Homo sapiens) (UniProt P11387); assay: Inhibition of Top1 (unknown origin)-mediated unwinding of supercoiled DNA at 5 uM incubated for 30 mins by electrophoretic analysis
T1 sequence (whole entry): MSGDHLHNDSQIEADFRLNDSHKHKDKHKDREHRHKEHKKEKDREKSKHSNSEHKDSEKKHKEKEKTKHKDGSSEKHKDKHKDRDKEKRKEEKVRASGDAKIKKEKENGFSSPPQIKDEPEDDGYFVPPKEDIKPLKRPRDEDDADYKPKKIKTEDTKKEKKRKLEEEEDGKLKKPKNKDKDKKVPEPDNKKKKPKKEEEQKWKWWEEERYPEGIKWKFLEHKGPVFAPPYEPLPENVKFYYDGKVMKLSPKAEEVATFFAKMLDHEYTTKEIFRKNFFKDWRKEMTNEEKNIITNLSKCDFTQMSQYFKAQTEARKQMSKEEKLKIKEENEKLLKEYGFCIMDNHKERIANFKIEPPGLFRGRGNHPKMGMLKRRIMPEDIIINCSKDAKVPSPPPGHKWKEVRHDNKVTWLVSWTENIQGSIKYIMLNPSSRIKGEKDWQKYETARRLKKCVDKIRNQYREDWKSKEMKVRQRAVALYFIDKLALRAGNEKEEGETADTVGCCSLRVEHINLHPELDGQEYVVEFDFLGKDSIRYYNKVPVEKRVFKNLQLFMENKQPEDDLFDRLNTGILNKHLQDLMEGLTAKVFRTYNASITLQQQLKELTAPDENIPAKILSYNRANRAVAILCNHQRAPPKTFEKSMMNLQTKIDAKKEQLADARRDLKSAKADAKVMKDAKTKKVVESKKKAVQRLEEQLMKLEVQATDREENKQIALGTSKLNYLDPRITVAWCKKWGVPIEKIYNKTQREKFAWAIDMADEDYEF

[7] = Drug uptake in human K562 cells at 2 uM incubated for 3 to 120 hrs by flow cytometry; assay type: ADME, cell-based; conditions: k562, 2 µM, time 3-120 hrs
DNA = assay: Binding affinity to pBR322 plasmid DNA (unknown origin) assessed as effect on electrophoretic mobility of DNA at 1 to 40 uM incubated for 30 mins; assay type: nucleic-acid assay; conditions: Escherichia coli, dose 1-40 µM
[8] = Drug uptake in lysosome of human HCT-116 cells at 3 uM incubated for 1 hr by LysoTracker Deep Red dye based confocal microscopy; assay type: ADME, subcellular; conditions: hct-116, 1 h
[9] = Drug uptake in human HCT-116 cells at 3 uM incubated for 10 mins by confocal microscopy; assay type: ADME, cell-based; conditions: hct-116, 10 min
[10] = Drug uptake in nuclear membrane of human HCT-116 cells at 3 uM incubated for 1 hr by confocal microscopy; assay type: ADME, cell membranes; conditions: hct-116, 1 h

Row | Compound | IC50 (K562) | IC50 (A549) | IC50 (K562/4) | Drug uptake [4] | Drug uptake [5] | inhibition [6] | Drug uptake [7] | Activity (DNA) | Drug uptake [8] | Drug uptake [9] | Drug uptake [10] | selectivity ratio [1] | IC50 at 72 h [2] | Ratio IC50 [3]
1 | Cc1[nH]c2c(O)c3c(c(O)c2c1C(=O)N1CC[C@H](N)C1)C(=O)c1ccccc1C3=O | 400 nM | 1900 nM | 50000 nM | Active | Not_active | Active; Slightly Less Potent | Not_active | inactive | Active | Active | Not_active | 12.5 | 5000 nM | 125
2 | CS(=O)(=O)O.O=C(NC1CCCNC1)c1cc2c(O)c3c(c(O)c2[nH]1)C(=O)c1ccccc1C3=O (racemic) | 1200 nM | 9000 nM | 2300 nM |  |  |  |  |  |  |  |  | 3.7 | 4400 nM | 1.9
3 | CS(=O)(=O)O.O=C(N[C@@H]1CCNC1)c1cc2c(O)c3c(c(O)c2[nH]1)C(=O)c1ccccc1C3=O | 2300 nM | 4000 nM | 47000 nM |  |  |  |  |  |  |  |  | 2.2 | 5000 nM | 20.4
4 | CS(=O)(=O)O.O=C(N[C@H]1CCNC1)c1cc2c(O)c3c(c(O)c2[nH]1)C(=O)c1ccccc1C3=O | 3500 nM | 4300 nM | 43000 nM |  |  |  |  |  |  |  |  | 1.6 | 5500 nM | 12.3
5 | CS(=O)(=O)O.O=C(NC1CCNCC1)c1cc2c(O)c3c(c(O)c2[nH]1)C(=O)c1ccccc1C3=O | 1800 nM | 4200 nM | 41000 nM |  |  |  |  |  |  |  |  | 1.4 | 2600 nM | 22.8
6 | COc1cccc2c1C(=O)c1c(O)c3c(c(O)c1C2=O)C[C@@](O)(C(=O)CO)C[C@@H]3O[C@H]1C[C@H](N)[C@H](O)[C@H](C)O1 [DOXORUBICIN] |  |  | 14000 nM |  |  |  |  |  |  |  |  |  |  | 

The next molecules have a lower IC50 (K562/4) than those just listed; values first:

Row | IC50 (K562) | IC50 (A549) | IC50 (K562/4) | Drug uptake [4] | Drug uptake [5] | inhibition [6] | Drug uptake [7] | Activity (DNA) | Drug uptake [8] | Drug uptake [9] | Drug uptake [10] | Compound | selectivity ratio [1] | IC50 at 72 h [2] | Ratio IC50 [3]
7 | 1600 nM | > 50000 nM | 1700 nM |  |  |  |  |  |  |  |  | N[C@H]1CCN(C(=O)c2cc3c(O)c4c(c(O)c3o2)C(=O)c2ccccc2C4=O)C1 | > 31.2 | > 50000 nM | 1.1
8 | 1000 nM | 4400 nM | 1200 nM |  |  |  |  |  |  |  |  | CS(=O)(=O)O.O=C1c2ccccc2C(=O)c2c1c(O)c1cc(C(=O)N3CCNCC3)[nH]c1c2O | 3.3 | 3300 nM | 1.2
9 | 1200 nM | 1200 nM | 1000 nM |  |  |  |  |  |  |  |  | CS(=O)(=O)O.NC1CCCN(C(=O)c2cc3c(O)c4c(c(O)c3[nH]2)C(=O)c2ccccc2C4=O)C1 (racemic) | 1.5 | 1800 nM | 0.8
10 | 1300 nM | 4300 nM | 1200 nM |  |  |  |  |  |  |  |  | CS(=O)(=O)O.N[C@@H]1CCN(C(=O)c2cc3c(O)c4c(c(O)c3[nH]2)C(=O)c2ccccc2C4=O)C1 | 3.3 | 4300 nM | 0.9
11 |  | 2000 nM | 400 nM |  |  |  |  |  |  |  |  | N[C@H]1CCN(C(=O)c2cc3c(O)c4c(c(O)c3s2)C(=O)c2ccccc2C4=O)C1 | 6 | 1800 nM | 1.2
